# Data taken from patent US8653023B1, “Dual beneficial effect of dopamine enhancing and neuroprotective actions of PKC delta inhibitors for treatment of Parkinson's disease” (Iowa State University Research Foundation, Inc., priority 2006, dated 2014).
# Where two headings read alike, the source gives them in different places.
# How the values were obtained:
# [1] = test system: macrophages; conditions: pretreatment, cited from earlier work
# [2] = test system: MPTP-treated C57 black mice; experiment: TH protein level in SN of MPTP-treated mice (Western blot); type: in vivo; conditions: all doses of rottlerin, MPTP 30 mg/kg 5 days
# Procedure: Six to 8-week-old […] mice weighing 30 g were housed in standard conditions: constant temperature (22±1° C.), humidity (relative, 30%) and a 12-h light/dark cycle, and were allowed free access to food and water. The animals and protocol procedures were approved and supervised by the Committee on Animal Care (COAC) at the Iowa State University. Rottlerin was dissolved in 1% dimethyl sulfoxide (DMSO) and was administered intraperitoneally at various doses. An equal volume of DMSO was given to controls. Rottlerin and DMSO administrations were started 24 h before the injections of the MPTP and continued for 5 days in the MPTP model. In the chronic regimens of MPTP administration, MPTP in phosphate-buffered saline (PBS) was injected intraperitoneally at doses of 30 mg/kg, once a day. Mice were sacrificed 2 days after the MPTP injections, and the striata were dissected for catecholamine analysis. […]
# brain lysates containing equal amounts of protein were loaded in each lane and separated on a 10-12% SDS-PAGE gel as described previously (Kaul, Kanthasamy et al. 2003). […] Secondary antibody-bound proteins were detected using Amersham's ECL chemiluminescence kit. […] Western blot images were captured with a Kodak […] imaging system and data were analyzed using 1D Kodak imaging analysis software.
# [3] = test system: dopaminergic N27 cells; conditions: cited from earlier work
# [4] = test system: cells; conditions: cited from earlier work
# [5] = test system: MPTP-treated C57 black mice; experiment: TH+ neuron count in substantia nigra pars compacta of MPTP mice (stereology); type: in vivo
# Procedure: Six to 8-week-old […] mice weighing 30 g were housed in standard conditions: constant temperature (22±1° C.), humidity (relative, 30%) and a 12-h light/dark cycle, and were allowed free access to food and water. The animals and protocol procedures were approved and supervised by the Committee on Animal Care (COAC) at the Iowa State University. Rottlerin was dissolved in 1% dimethyl sulfoxide (DMSO) and was administered intraperitoneally at various doses. An equal volume of DMSO was given to controls. Rottlerin and DMSO administrations were started 24 h before the injections of the MPTP and continued for 5 days in the MPTP model. In the chronic regimens of MPTP administration, MPTP in phosphate-buffered saline (PBS) was injected intraperitoneally at doses of 30 mg/kg, once a day. Mice were sacrificed 2 days after the MPTP injections, and the striata were dissected for catecholamine analysis. Additionally, rottlerin alone (0.3-20 mg/kg) was administered via intraperitoneally or orally and then brain tissues were subjected to neurochemical analyses (FIG. 8). The mesencephalons were fixed in 4% paraformaldehyde for 5 days for tyrosine hydroxylase (TH) immunostaining.
# Brains removed following cervical dislocation were post-fixed in paraformaldehyde and used for TH immunolabelling and stereological studies. Fixed brains were cut into 30-μm sections and collected in cryoprotectant. Sections were rinsed in PBS at room temperature before immunostaining, then incubated with a anti-TH antibody as described (Thiruchelvam, McCormack et al. 2003; Thiruchelvam, Powers et al. 2004). The total number of TH^+ and TH Nissl-stained neurons in the SNpc were counted using the optical fractionator and previously described counting criteria (Thiruchelvam, McCormack et al. 2003; Thiruchelvam, Powers et al. 2004). After delineation of the region at low magnification (4× objective), every fourth section from the entire substantia nigra was sampled at higher magnification (100× objective) using StereoImager (Microbrightfield, Vt.).
# [6] = test system: primary mesencephalic dopaminergic neuronal cells; type: cell-based, mice; conditions: 10 μM MPP+, 48 hrs
# Procedure: Primary mesencephalic neuronal cultures were prepared from the ventral mesencephalon of gestational 16-18-day-old mice embryos as described previously (Yang et al., 2004). Mesencephalic tissues were dissected and maintained in ice-cold Ca^2+-free HESS and then dissociated in HESS solution containing trypsin-EDTA (0.25%) for 20 min at 37° C. The dissociated cells were then plated at equal density (0.5×10^6 cells) in 30-mm-diameter tissue culture wells precoated with poly-D-lysine (1 mg/ml). Cultures were maintained in a chemically defined medium consisting of neurobasal medium fortified with B-27 supplements, L-glutamine (500 μM), penicillin (100 IU/ml), and streptomycin (100 μg/ml) (Life Technologies). The cells were maintained in a humidified CO2 incubator (5% CO2, 37° C.) for 24 hr and then treated with cytosine arabinoside (10 μM) for 24 hr to inhibit glial cell proliferation. Half of the culture medium was replaced every 2 days. Approximately 6-7-day-old cultures were used for experiments. […]
# After treatment, the primary mesencephalic neurons were fixed with 4% paraformaldehyde and processed for immunocytotochemical staining. […] Then the coverslips containing stained cells were washed with PBS, mounted on a slide, and viewed under a Nikon inverted fluorescence microscope (Model TE-2000U); images were captured with a SPOT digital camera (Diagnostic Instruments, Sterling Heights, Mich.).
# We used Metamorph software (Universal Imaging, Version 5.0) for measurement of TH^+ cells and neuronal processes in primary neurons from each coverslip. For measurement of TH cell count, the images were first thresholded, and then neuronal count and volume were measured using the Integrated Morphometry Analysis (IMA) function. The data were logged to an Excel spreadsheet with defined row and column positions and then analyzed. […] The data were exported to an Excel spreadsheet and analyzed. TH^+ neurons and their processes were counted in at least six individual cultures for each treatment. This method is a modified version of methodology recently used for quantification of neuronal processes.
# [7] = test system: PKCδ; conditions: pretreatment, dose-dependent; cited from earlier work
# [8] = test system: PKCε, ζ, or η; conditions: cited from earlier work
# [9] = test system: PKA; conditions: cited from earlier work
# [10] = test system: NZM mice; conditions: in vivo treatment; cited from earlier work
structure (smiles),measurement,setting,value
CC(=O)c1c(O)c(C)c(O)c(Cc2c(O)c3c(c(C(=O)/C=C/c4ccccc4)c2O)OC(C)(C)C=C3)c1O [rottlerin],suppression of UV-B-induced DNA fragmentation,[1]; 1 μM,approximately 30%
same,suppression of UV-B-induced DNA fragmentation,[1]; 10 μM,~50%
same,TH protein level in SN,[2],attenuate loss of TH protein
same,"H2O2 and MPP+-induced apoptotic cell death (genistein: also PKCδ cleavage, kinase activation)",[3],dramatically inhibited
same,asbestos-induced apoptosis,[4],inhibited
same,protective effect against SNpc cell loss,[5]; cotreatment with 20 mg/kg rottlerin,37%
same,cell loss in SNpc,[5]; cotreatment with 20 mg/kg rottlerin and MPTP 30 mg/kg,13%
same,MPP+-induced degeneration of TH+ neurons and their processes,[6]; 0.3 μM rottlerin,significantly blocked
same,MPP+-induced degeneration of TH+ neurons and their processes,[6]; 1 μM rottlerin,significantly blocked
same,MMT induced accumulation of PKCδ cleavage product and increased kinase activity,[7],prevented
same,"fold more potent on PKCδ than on PKCε, ζ, or η",[8],13- to 33 fold
same,inhibition,[9],weak inhibitor
same,exacerbation of autoimmunity by silica exposure,[10],significantly decreased
